Source: US20250255771A1, “OPHTHALMIC DEVICES FOR MANAGEMENT OF WATER VAPOR TRANSMISSIBILITY, DELIVERY OF PHARMACEUTICAL AGENTS, AND NON-SURGICAL CORNEAL RESHAPING” (OCULAR SURFACE INNOVATIONS INC., priority 2024, published 2025)

How the values were obtained:
[1] = same polydimethylsiloxane devices; stated as known; cited from earlier work
[2] = Selective transfer of molecules through ultrahigh Dk lens material; format: physicochemical; settings: ultrahigh Dk lens material selective to molecules by size
From the text: The inventors discovered an ultrahigh Dk lens material that is selective to the transfer of molecules based on their size. […] The material has value in reverse osmosis systems because of its selective permeability. Its transmissibility may be regulated by the thickness profile of the ophthalmic device or may be further regulated by the addition of surface modification or fillers within the substrate of the material that produce selective permeability related to polar surface area or the molecular weight of a permeant.

[3] = Retention of permeants under polydimethylsiloxane devices during wearing; settings: devices 14.3 mm overall diameter, thickness greater than 0.400 mm; not found in device substrate after removal or in pre device tear film during wearing

| Structure (SMILES) | transmissibility through the devices [1] | transfer through the material [2] | retention of permeant behind the device (permeation through device) [3] |
| --- | --- | --- | --- |
| CCO [ethanol] | high transmissibility | – | – |
| O=O [oxygen] | high transmissibility | will transfer | – |
| [Cl-].[Na+] [sodium chloride] | – | will not transfer | – |
| O=C([O-])c1ccccc1-c1c2ccc(=O)cc-2oc2cc([O-])ccc12.[Na+].[Na+] [sodium fluorescein] | – | – | retained in the post lens tear space |
| O [water vapor] | high transmissibility | will transfer | – |
